Values quoted from earlier work, collected in patent publication US8361760B2, “Microbial production of 3-hydroxyacids from glucose and glycolate” (Massachusetts Institute of Technology, priority 2009, dated 2013).

Tested on: CoA-transferase
Set-up: Relative activity: concentration or dose not given beside the values
Settings: CoA-transferase activity with carboxylic acid added; for Relative activity: relative to None = 100; for Specific Activity: None = 34.1 units/mg

Compound	Relative activity [%]	Specific Activity [units/mg]
O=C(O)/C=C/CC(=O)O [(E)-Glutaconate]	94	32.1
O=C(O)CC[C@@H](O)C(=O)O [(R)-2-Hydroxyglutarate]	87	29.6
C[C@@H](O)C(=O)O [(R)-Lactate]	27	9.1
C[C@H](O)C(=O)O [(S)-Lactate]	46	15.8
C=CC(=O)O [Acrylate]	37	12.7

Continued, values first:

Relative activity [%]	Specific Activity [units/mg]	Compound
20	6.8	CCC(=O)O [Propionate]
96	32.8	O=C(O)/C=C/C(=O)O [Fumarate]
87	29.6	O=C(O)CCC(=O)O [Succinate]
